Laboratory results published in patent US20160304970A1, “GENE BIOMARKER TO DIAGNOSE METASTIC LIVER CANCER AND METHODS FOR TARGETING THE SAME” (University of Southern California, priority 2015, published 2016).
Several values for one entry are separate records, joined by “and”; a condition that tells them apart may be missing. Identical values can stand only once.

Experiments:
TICs [1] = experiment: ATP production measurements; type: cell-based; details: inhibitors for 4 hr
Method: Relative ATP/cell assays were performed in 96-well plates. After cells were treated with inhibitors for 4 hr, culture media was removed. Cell Titer-Glo (100 μl: Promega) and CyQUANT (Invitrogen) were immediately added to each well. Luminescence and fluorescence readings were consecutively measured after room-temperature incubation for 10 min.

TICs [2] = experiment: Seahorse extracellular flux analysis (OCR, ECAR); type: cell-based; details: for FCCP-induced OCR: Nanog silenced TICs, ETO 100 μM
Method: To measure cellular bioenergetics using extracellular flux, a Seahorse […] Extracellular Flux Analyzer was used following the published protocol (Ahfeldt et al., 2012; Ferrick et al., 2008). […] Cells were plated in gelatin-coated XF 24-well cell culture microplates at 2-7.5×10^4 cells/well (Seahorse Bioscience) and incubated in pre-warmed unbuffered DMEM medium (DMEM containing 2 mM GlutaMAX, 1 mM sodium pyruvate, 1.85 g l^−1 NaCl and 25 mM glucose) for 1 h. The oxygen consumption was measured by the XF24 extracellular flux analyzer (Seahorse Biosciences) in unbuffered DMEM assay medium supplemented with 1 mM pyruvate and 25 mM glucose after 45 to 60 min equilibration.
The characteristic function of mature hepatocytes is metabolism/thermogenesis, driven by the catabolic breakdown of lipids. To distinguish these tumor cells at a functional level, the oxygen consumption rate (OCR) and extracellular acidification rate (ECAR) were analyzed as previously described (Ahfeldt et al.). It was observed that the basal OCR and ECAR rates were highest in the Nanog-silenced TICs. Compounds were added that modulated mitochondrial function sequentially and measured the effect on OCR and ECAR after the addition of each compound. Oligomycin was first administered to determine ATP turnover and the degree of proton leakage. […] After the addition of the electron transport chain decoupler (FCCP), the maximal respiratory capacity was measured. […] Finally, antimycin was administered to inhibit the flux of electrons through complex III and prevent oxygen consumption by the cytochrome c oxidase in the mitochondria as previously described. For determination of individual ETC complex activities, mitochondrial biogenesis was profiled by adding perturbation drugs: 2 μM oligomycin, 0.5 μM FCCP and 5 μM antimycin A/rotenone, in succession. OCR for complexes II-IV was measured by first inhibiting complex I with rotenone; OCR for complexes III-IV was measured by first inhibiting complex II with […]; and OCR for complex IV was measured by first inhibiting complex III with antimycin. The Etomoxir (ETO, 100 μM)-sensitive component of oxygen consumption rate (OCR) represents FAO. Absolute values of OCR were expressed as pmol min^−1 per 10^6 cells and mpH min^−1 per 10^6 cells. OCR and ECAR were determined by plotting the oxygen tension and acidification of the medium in the chamber as a function of time and normalized to protein concentration (picomoles per minute per milligram), respectively. […]
The ECAR was measured over time at 10 min intervals. […] By uncoupling the proton gradient with FCCP, the maximum OCR rates were determined over the next two time intervals (II). By addition of glycolysis inhibitor (2-DG) or CPT1 inhibitor (ETO), the OCR rates were determined over the next two time intervals (III). […]

mouse TICs = experiment: TIC xenograft in NOG mice, sorafenib resistance; type: in vivo; details: mouse TICs subcutaneously in NOG mice
TICs [3] = experiment: Cytochrome c release, immunoblot of cytosol and heavy membrane fractions; type: cell-based
TICs [4] = experiment: ROS levels and spheroid formation of TICs; type: cell-based
Method: To evaluate the status of mitochondria in TICs, the MitoTracker® Mitochondrion-selective probes for total mitochondrial mass (MitoTracker® Deep Red FM Invitrogen: M22426) and for oxidized state mitochondria (MitoSOX™ Red mitochondrial superoxide indicator) were added to the media, respectively, and cells subjected to FACS analyses. ROS labeling was performed as per the instructions for CellROX® Oxidative stress reagent Probes (CellROX® green reagent, Invitrogen C10444). In brief, the cells were incubated with staining solution (100 nM) in culture media at 37° C. for 30 minutes. After staining was complete, cells were washed with PBS and analyzed by fluorescent microscopy or flow cytometry.

[5] = CD133 cell viability screening (luminescence, CellTiter-Glo); type: cell-based; details: human, CD133 (−) Huh7 cells (freshly MACS-sorted)
Method: (§1) CD133(+) and CD133(−) Huh7 cells were freshly sorted using the MACS CD133 micro bead kit (Miltenyi Biotec, 130-050-801) and were seeded in 100 μl medium containing 5000 cells per well in a 96-well plate. Once the cells attached, the FDA approved drug library was added to each well to a final concentration of 20 μg/ml in duplicate. After incubation for 48 hours, the cell viability was determined by a luminescence assay. […] After 16 hours, 1 μl of a […] drug solution was individually added to the 96 wells, resulting in a 20 μg/ml final concentration for most compounds. After 48 hours, CellTiter-Glo® Reagent (G8233, Promega) was added and the luminescence signal was measured with an automated plate reader. The raw data for each well was background-corrected by DMSO control wells on the same plate.

CD133 (+) Huh7 cells = experiment: as above; type: cell-based; details: Homo sapiens, Huh-7
Method: as §1
Freshly sorted CD133 (+) Huh7 or mouse TICs were plated in 100 μl of medium containing 5000 cells per well in a 96-well plate. After 16 hours, 0.5 μl of a 2 μg/ml, 1 μg/ml, 0.2 μg/ml, 0.1 μg/ml, 0.02 μg/ml, or 0.01 μg/ml compound was added to each well in triplicate, resulting in a 10 μg/ml, 5 μg/ml, 1 μg/ml, 0.5 μg/ml, 0.1 μg/ml, and 0.05 μg/ml final concentration for most compounds, respectively. After 48 hours, the cells were either measured for cell viability by Cell-Glo® Reagent (Promega), or fixed with 1% PFA (paraformaldehyde) and stained with DAPI for high-throughput screening.

hepatocytes = experiment: Cytochrome c release, immunoblot of cytosol and heavy membrane fractions; type: cell-based; details: within 1-3 hours post treatment
TICs [6] = details: cited from earlier work
TICs [7] = experiment: Stable-isotope glutaminolysis analysis; type: cell-based
Method: To test the glutamine utilization, TICs were incubated in 1 mM of [U-^13C5, 2,5-^15N2]-glutamine (Cambridge Isotope Laboratory, Cat # CNLM-1275-H-PK) for 4 hr. When [U-^13C5, 2,5-^15N2]-glutamine is taken up by cells, it loses the ^15N on the 5th carbon and is converted to [U-^13C5, 2-^15N]-glutamate, which loses the ^15N on the 2nd carbon and becomes [U-^13C5]-glutamate after rapid equilibration with TCA cycle intermediate α-ketoglutarate. When glutamine and glutamate were analyzed by gas chromatography mass spectrometry (GC-MS) using electronic impact ionization (EI), their TFA derivatives gave rise to C2-C4 (m/z 152) and C2-C5 (m/z 198) fragments. Thus, the [U-^13C5, 2-^15N]-glutamate has a C2-C4 fragment of m/z 156 (M4; contains 3×^13C and a ^15N) and a C2-C5 fragment of […] (M5; contains 4×^13C and a ^15N), which represent the relative abundance of glutamine taken up by the TICs. On the other hand, [U-^13C5]-glutamate has a C2-C4 fragment of m/z 155 (M3; contains 3×^13C) and a C2-C5 fragment of […] (M4; contains 4×^13C). When the [U-^13C5]-glutamate enters TCA cycle metabolism, it will gradually lose the ^13C carbon after each cycle and generate M2, M1, and M0 C2-C4 fragment and M3, M2, M1, and M0 C2-C5 fragment, which represent the TCA cycle activity. […]

Structure (SMILES): O=CC[C@@H](O)[C@H](O)[C@H](O)CO [2-DG, 2-deoxyglucose]
- ATP production (TICs [1]): did not significantly lower ATP production
- FCCP-induced OCR (TICs [2]): not

Structure (SMILES): CCOC(=O)[C@@]1(CCCCCCOc2ccc(Cl)cc2)CO1 [ETO, Etomoxir]
- ATP production (TICs [1]): reduced ATP production
- FCCP-induced OCR (TICs [2]): antagonized
- ECAR (TICs [2]; sh-Nanog-TICs): inhibits
- ECAR (TICs [2]; sh-Scr-TICs): does not affect
- xenograft tumor growth / sorafenib resistance (mouse TICs): sensitized TICs to sorafenib
- cytochrome c release from mitochondria (TICs [3]; in response to sorafenib treatment): enhanced

Structure (SMILES): C[n+]1ccc(-c2cc[n+](C)cc2)cc1 [Paraquat]
- ROS production (TICs [4]): increased ROS production
- tumor spheroid formation of TICs (TICs [4]): significantly reduced

Structure (SMILES): COc1cc(C)c(/C=C/C(C)=C/C=C/C(C)=C/C(=O)O)c(C)c1C [acitretin]
- viability at 48 h, 20 μg/ml [5]: 70.4%
- viability at 20 µg/mL (CD133 (+) Huh7 cells; 20 μg/ml, 48 hours): 12%
- IC50 (CD133 (+) Huh7 cells; CD133 killing effect, FIG. 44A): 7.37 µg/mL and 22.6 µM

Structure (SMILES): CNC(=O)c1cc(Oc2ccc(NC(=O)Nc3ccc(Cl)c(C(F)(F)F)c3)cc2)ccn1 [sorafenib]
- cytochrome c localisation following sorafenib treatment (hepatocytes): translocated from mitochondria into the soluble fraction
- tumor size reduction (TICs [6]; sorafenib combined with knockdown of YAP1 (Chen et al., 2013)): ~55%
- suppression of tumor growth (TICs [6]; sorafenib with antagonism of NANOG in TICs, tumor-bearing mice (Huynh et al., 2009)): ~90%
- xenograft tumor growth / sorafenib resistance (mouse TICs): very resistant
- cytochrome c localisation following sorafenib treatment (TICs [3]; TICs): remained mostly in the heavy membrane (HM) fraction

Structure (SMILES): C=CC(N)CCC(=O)O (stereo not shown) [vigabatrin]
- percentage of labeled succinate (TICs [7]): does not reduce
